# From patent US10883993B2, “P53 biomarkers” (MULTIVIR INC., priority 2008, dated 2021)
# How the values were obtained:
# SCCHN = settings: monotherapy studies in SCCHN, ITT population, standard of care drugs; cited from earlier work
# recurrent SCCHN = test: Phase 3 pivotal trial T301 (ADVEXIN or methotrexate), tumor response and survival; assay type: in vivo, human
# Source text: Favorable response to the therapy may comprise reduction in tumor size or burden, blocking of tumor growth, reduction in tumor-associated pain, reduction in tumor-associated pathology, reduction in tumor-associated symptoms, tumor non-progression, increased disease free interval, increased time to progression, induction of remission, reduction of metastasis, or increased patient survival. Particularly, “tumor response” may refer to tumor growth control (tumor growth control (TGC) defined by complete (CR) and partial (PR) reductions in size of >50% or Stable Disease (SD); TGC=CR+PR+SD) or reductions in tumor size of >10%.
# Table 2 summarizes the results of these analyses and provides the corresponding data for patients treated with methotrexate in the pivotal Phase 3 T301 study.
# SCCHN patients = test: Safety data, Phase III SCCHN study (ADVEXIN vs methotrexate)
# αv/β3 vascular integrin [1] = molecular target: T1, αv/β3 vascular integrin (Homo sapiens, UniProt P05106+P06756); settings: Phase II clinical trials in humans, without harmful side effects; cited from earlier work
# T1 construct: the new blood vessels in tumors express a vascular integrin, designated αv/β3; host or cells: tumour blood vessels of human patients
# T1 sequence (P06756 31-889 limits assumed): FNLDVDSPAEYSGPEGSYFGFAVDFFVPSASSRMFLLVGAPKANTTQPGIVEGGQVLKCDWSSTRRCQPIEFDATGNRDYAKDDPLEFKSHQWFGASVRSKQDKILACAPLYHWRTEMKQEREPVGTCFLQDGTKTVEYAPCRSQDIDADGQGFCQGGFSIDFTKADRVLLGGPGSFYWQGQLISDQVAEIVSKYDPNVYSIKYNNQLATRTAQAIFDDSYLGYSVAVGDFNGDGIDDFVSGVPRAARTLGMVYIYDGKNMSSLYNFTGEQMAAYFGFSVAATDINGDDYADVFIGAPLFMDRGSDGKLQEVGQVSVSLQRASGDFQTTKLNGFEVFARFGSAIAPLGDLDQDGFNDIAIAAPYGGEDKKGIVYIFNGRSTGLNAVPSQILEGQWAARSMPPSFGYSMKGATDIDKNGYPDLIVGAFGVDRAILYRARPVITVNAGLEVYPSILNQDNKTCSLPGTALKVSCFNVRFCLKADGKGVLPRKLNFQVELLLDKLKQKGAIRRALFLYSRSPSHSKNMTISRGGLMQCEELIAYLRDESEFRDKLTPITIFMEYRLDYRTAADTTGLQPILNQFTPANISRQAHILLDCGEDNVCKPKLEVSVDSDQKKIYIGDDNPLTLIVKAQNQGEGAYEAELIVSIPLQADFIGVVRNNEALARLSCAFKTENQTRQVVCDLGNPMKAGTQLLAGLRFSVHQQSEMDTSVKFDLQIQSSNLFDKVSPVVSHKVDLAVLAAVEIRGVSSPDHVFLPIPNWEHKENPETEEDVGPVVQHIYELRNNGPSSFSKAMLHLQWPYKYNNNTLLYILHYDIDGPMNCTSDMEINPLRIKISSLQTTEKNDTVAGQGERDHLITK
# T1 sequence (P06756 891-1048 limits assumed): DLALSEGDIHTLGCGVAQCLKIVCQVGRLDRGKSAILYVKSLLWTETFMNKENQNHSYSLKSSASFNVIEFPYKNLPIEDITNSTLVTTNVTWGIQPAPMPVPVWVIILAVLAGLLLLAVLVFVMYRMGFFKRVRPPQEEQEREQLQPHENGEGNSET
# T1 sequence (P05106 27-788): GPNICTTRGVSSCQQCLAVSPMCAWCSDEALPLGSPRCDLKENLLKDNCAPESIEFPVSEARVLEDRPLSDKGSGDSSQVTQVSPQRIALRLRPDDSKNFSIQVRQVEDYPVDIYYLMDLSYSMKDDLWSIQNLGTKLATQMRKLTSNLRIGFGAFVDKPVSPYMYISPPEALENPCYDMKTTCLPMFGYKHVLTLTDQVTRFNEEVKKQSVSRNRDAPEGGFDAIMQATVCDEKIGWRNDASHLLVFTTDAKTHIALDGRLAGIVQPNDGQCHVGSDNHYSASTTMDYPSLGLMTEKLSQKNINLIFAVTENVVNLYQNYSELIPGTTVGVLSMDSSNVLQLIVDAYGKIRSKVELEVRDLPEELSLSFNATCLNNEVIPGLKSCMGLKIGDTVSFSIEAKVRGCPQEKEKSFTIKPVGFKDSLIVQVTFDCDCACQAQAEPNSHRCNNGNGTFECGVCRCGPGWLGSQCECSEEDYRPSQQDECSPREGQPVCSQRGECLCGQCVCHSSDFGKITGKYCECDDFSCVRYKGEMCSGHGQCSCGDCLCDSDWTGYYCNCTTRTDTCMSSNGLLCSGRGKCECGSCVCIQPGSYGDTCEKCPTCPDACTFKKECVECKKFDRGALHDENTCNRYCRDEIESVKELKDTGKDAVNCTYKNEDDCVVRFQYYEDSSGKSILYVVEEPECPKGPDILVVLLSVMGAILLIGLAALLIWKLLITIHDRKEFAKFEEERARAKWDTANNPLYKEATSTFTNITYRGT
# αv/β3 vascular integrin [2] = settings: mice, without harming them; cited from earlier work
# [3] = T301, p53 gene status wild type
# [4] = T301 methotrexate ITT population
molecule,measurement,setting,value
CC(=O)O[C@@]12CO[C@@H]1C[C@H](O)[C@@]1(C)C(=O)[C@H](O)C3=C(C)[C@@H](OC(=O)[C@H](O)[C@@H](NC(=O)OC(C)(C)C)c4ccccc4)C[C@@](O)([C@@H](OC(=O)c4ccccc4)[C@H]21)C3(C)C [Docetaxel],Median Overall Survival,SCCHN,6.6 months
C#Cc1cccc(Nc2ncnc3cc(OCCOC)c(OCCOC)cc23)c1 [Erlotinib],Median Overall Survival,SCCHN,5.8 months
CN(Cc1cnc2nc(N)nc(N)c2n1)c1ccc(C(=O)N[C@@H](CCC(=O)O)C(=O)O)cc1 [Methotrexate],Median Overall Survival,SCCHN,4.2-5.6 months
same,"Median survival, patients with p53 profiles favorable for ADVEXIN efficacy",recurrent SCCHN; T301,4.3 months
same,"Median survival, patients with p53 profiles unfavorable for ADVEXIN efficacy",recurrent SCCHN; T301,6.0 months
same,"Tumor Growth Control, patients with TGC / patients","recurrent SCCHN; T301, p53 gene status mutated",13/15
same,"Tumor Growth Control, percentage of patients","recurrent SCCHN; T301, p53 gene status mutated",87%
same,"Tumor Growth Control, patients with TGC / patients",recurrent SCCHN; [3],11/20
same,"Tumor Growth Control, percentage of patients",recurrent SCCHN; [3],55%
same,"Median Survival, TGC Non-Responders",recurrent SCCHN; T301 ITT population,3.8 months
same,"Median Survival, TGC Responders",recurrent SCCHN; T301 ITT population,7.5 months
same,% Tumor Growth Control,"recurrent SCCHN; T301 ITT population, TGC = CR+PR+SD",53.3%
same,% Tumor Response (≥10% tumor reduction),recurrent SCCHN; [4],18.3%
same,% Tumor Response (≥50% tumor reduction),recurrent SCCHN; [4],11.7%
same,"Median Survival, Non-Responders (≥10% tumor reduction criterion)",recurrent SCCHN; [4],4.3 months
same,"Median Survival, Non-Responders (≥50% tumor reduction criterion)",recurrent SCCHN; [4],4.6 months
same,"Median Survival, Responders (≥10% tumor reduction)",recurrent SCCHN; [4],11.9 months
same,"Median Survival, Responders (≥50% tumor reduction)",recurrent SCCHN; [4],14.4 months
same,Grade 3 or 4 laboratory event: leukopenia,SCCHN patients; Phase III SCCHN study,12.1%
same,Grade 3 or 4 laboratory event: lymphopenia,SCCHN patients; Phase III SCCHN study,25.6%
same,Grade 3 or 4 laboratory event: neutropenia,SCCHN patients; Phase III SCCHN study,12.1%
same,Incidence of Grade 3 or 4 laboratory events,SCCHN patients; Phase III SCCHN study,39.5%
same,Body weight loss over time,"SCCHN patients; Phase III SCCHN study, compared with ADVEXIN patients",more body weight loss
same,Deaths attributed to treatment,"SCCHN patients; Phase III recurrent SCCHN study, due to leukopenia",one death
same,"Incidences of stomatitis, nausea, pneumonia, paresthesia, leucopenia and neutropenia","SCCHN patients; Phase III study, relative to ADVEXIN",higher incidences
CC(=O)O[C@H]1C(=O)[C@@]2(C)[C@H]([C@H](OC(=O)c3ccccc3)[C@]3(O)C[C@H](OC(=O)[C@H](O)[C@@H](NC(=O)c4ccccc4)c4ccccc4)C(C)=C1C3(C)C)[C@]1(OC(C)=O)CO[C@@H]1C[C@@H]2O [Paclitaxel],Median Overall Survival,SCCHN,4.4 months
Carboplatin/5FU,Median Overall Survival,SCCHN,5.0 months
Cisplatin/5FU,Median Overall Survival,SCCHN,5.6-6.4 months
"Vitaxin®: a monoclonal antibody directed against the αv/β3 vascular integrin (antibody, chains of the INN, looked up, V domains shown) VH: QVQLVESGGGVVQPGRSLRLSCAASGFTFSSYDMSWVRQAPGKGLEWVAKVSSGGGSTYYLDTVQGRFTISRDNSKNTLYLQMNSLRAEDTAVYYCARHLHGSFASWGQGTTVTVSS VL: EIVLTQSPATLSLSPGERATLSCQASQSISNFLHWYQQRPGQAPRLLIRYRSQSISGIPARFSGSGSGTDFTLTISSLEPEDFAVYYCQQSGSWPLTFGGGTKVEIK",Effect on solid tumors,αv/β3 vascular integrin [1],some promise in shrinking solid tumors
same,Effect on tumors,αv/β3 vascular integrin [2],shrinks tumors
